Patent US20210000911A1, “COMPOSITIONS AND METHODS FOR PROTECTING EPITHELIAL AND BARRIER INTEGRITY” (OCUNEXUS THERAPEUTICS, INC., priority 2019, published 2021)
“Also recorded” adds a separate entry of the source.

Experiments:
[1] = test system: ARPE-19 cells; experiment: Connexin43 immunohistochemistry (gap junction plaque localisation); assay type: cell-based, Human; conditions: ARPE-19, HG + cytokines, 72 h
Procedure: (§1) Cell Culture—Human adult retinal pigment epithelial cells (ARPE-19; American Type Culture Collection, USA) were cultured in Dulbecco's Modified Eagle Medium Nutrient Mixture F-12 (DMEM-F12; Thermofisher Scientific Inc., USA) supplemented with 10% foetal bovine serum (FBS; Invitrogen, USA) and a 1× antibiotics and antimycotics mixture (AA, 100× stock) at 37° C. in a humidified 5% CO2 incubator. Cells were grown in T75 flasks and the medium was changed twice per week until confluent. […]
(§2) Image analysis and quantification of collagen IV immunolabelling—Images were taken on an Olympus FV1000 confocal laser scanning microscope (Olympus, Japan). […] Both ZO-1 and connexin43 expression were qualitatively assessed for changes in localisation. Collagen IV labelling was quantified from four images taken per well and the experiment was repeated three times. […] The total area covered by collagen IV was then quantified using the ‘measure’ feature in ImageJ. Collagen IV results were expressed as a percentage of untreated (basal) cells.

[2] = test system: ARPE-19 cells; experiment: Lactate dehydrogenase (LDH) release assay; assay type: cell-based, Human; conditions: ARPE-19, HG + cytokines, 72 h
Procedure: as §1
Lactate Dehydrogenase (LDH) assay—Cells were seeded at 2.5×10^5 cells/mL in 96-well plates until confluent after which the culture medium was changed to treatments in serum-free DMEM-F12 containing 1×AA for 72 h. […] The amount of LDH released was assessed using an LDH assay kit as per manufacturer instructions (Sigma-Aldrich, USA). […] A Synergy 2 multi-mode plate reader (BioTek Instruments Inc., USA) was used to measure the absorbance of the formazan dye in the medium at 490 nm (OD490). LDH release (%) was calculated relative to basal conditions.

[3] = test system: ARPE-19 cells; experiment: Trans-epithelial electrical resistance (TEER) of ARPE-19 monolayer after HG and cytokine challenge; assay type: cell-based, Human; conditions: ARPE-19, HG 32.5 mM + TNF-α and IL-1β 10 ng/mL, Peptide5 25 μM
Procedure: Cell Culture—Human adult retinal pigment epithelial cells (ARPE-19; American Type Culture Collection, USA) were cultured in Dulbecco's Modified Eagle Medium Nutrient Mixture F-12 (DMEM-F12; Thermofisher Scientific Inc., USA) supplemented with 10% foetal bovine serum (FBS; Invitrogen, USA) and a 1× antibiotics and antimycotics mixture (AA, 100× stock) at 37° C. in a humidified 5% CO2 incubator. Cells were grown in T75 flasks and the medium was changed twice per week until confluent.
HG and/or cytokine challenge—At passage 6-12, cells were plated at 2.5×10^5 cells/mL in 8-well chamber slides for immunohistochemical studies, 6-well plates for TEER and FITC-dextran studies or 96-well plates for the […] dehydrogenase (LDH) and ATP release assay until confluent after which the culture medium was changed to treatments in serum-free DMEM-F12 containing 1×AA for 24 h. […]
Measurement of Trans-Epithelial Electrical Resistance (TEER)—Cells were seeded at 2.5×10^5 cells/mL on polyester membranes in Transwell® 6-well plates (Corning Incorporated, USA) in growth medium and incubated for 72 h. […] Net TEER values were calculated by subtracting the resistance in Transwell inserts without cells from the experimental values obtained from chamber containing cells. […] The sample size was three readings per well, repeated three times in separate experiments.

[4] = test system: ARPE-19 cells; experiment: ZO-1 immunohistochemistry (localisation); assay type: cell-based, Human; conditions: ARPE-19, HG + cytokines, Peptide5 25 μM, 72 h
Procedure: as §1, §2

[5] = biological target: connexin43 hemichannel (human, UniProt P17302 2-382); experiment: cell-based or functional assay
Chain of connexin43 hemichannel (P17302 2-382): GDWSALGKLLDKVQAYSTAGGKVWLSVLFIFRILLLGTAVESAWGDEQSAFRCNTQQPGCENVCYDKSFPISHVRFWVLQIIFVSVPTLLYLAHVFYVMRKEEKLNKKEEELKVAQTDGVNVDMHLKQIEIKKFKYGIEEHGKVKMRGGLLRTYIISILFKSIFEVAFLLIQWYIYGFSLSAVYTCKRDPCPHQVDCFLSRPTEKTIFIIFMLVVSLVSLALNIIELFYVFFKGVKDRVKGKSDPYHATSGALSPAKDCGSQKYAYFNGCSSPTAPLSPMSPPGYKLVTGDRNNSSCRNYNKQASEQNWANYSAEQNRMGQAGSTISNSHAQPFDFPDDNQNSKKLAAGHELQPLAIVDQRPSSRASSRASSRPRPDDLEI

[6] = Peptide5 25 μM plus exogenous ATP 100 nM

FITC-dextran permeability at 72 h (% relative to blank wells), ARPE-19 monolayer with HG and cytokines, Peptide5 at 25 uM [5] [%]	Molecule	Connexin43 localisation with exogenously added ATP (qualitative) [1, 6]	Connexin43 localisation at the cell membrane (qualitative) ([1]; Peptide5 25 μM)	LDH release with exogenously added ATP [2, 6]	LDH release relative to basal conditions ([2]; Peptide5 25 μM)	TEER relative to basal conditions ([3]; 48 h)	TEER relative to basal conditions ([3]; 72 h)	ZO-1 localisation at the cell membrane (qualitative) [4]
	H-Val-Asp-Cys-Phe-Leu-Ser-Arg-Pro-Thr-Glu-Lys-Thr-OH (H-VDCFLSRPTEKT-OH) [Peptide5]	change in connexin43 gap junction localisation; also recorded: again a loss of connexin43 at cell membranes	protected against the redistribution of connexin43 localisation away from the cell membrane and into the cytoplasm; also recorded: connexin43 is kept in its normal pattern; also recorded: maintained connexin43 primarily in gap junction plaques, similar to basal conditions	once-again increased LDH release; also recorded: LDH levels were increased to injury levels	LDH release remains low; also recorded: prevented LDH release relative to basal conditions; also recorded: reduced by Peptide5 treatment	no statistically significant difference between Peptide5-treated and basal cells; also recorded: prevented a decrease in TEER at both time-points	no statistically significant difference between Peptide5-treated and basal cells; also recorded: prevented a decrease in TEER at both time-points	maintained ZO-1 localisation to cell membranes similar to basal conditions
33.2	H-VDCFLSRPTEKT-OH [Peptide5 (H-Val-Asp-Cys-Phe-Leu-Ser-Arg-Pro-Thr-Glu-Lys-Thr-OH)]							
